# Measured values: patent US20060040997A1, “Benzthiazole-3 oxides useful for the treatment of proliferative disorders” (priority 2003, published 2006)
# Like-named read-outs stand apart in the source and are kept apart here.
# Key:
# A549 = test: 72-h MTT cellular proliferation assay, A549; assay type: cell-based; conditions: Homo sapiens, A549, 72 h; read-out: Anti-proliferative activity on tumour cell lines (MTT assay) A549 IC50
# Method: (§1) Cellular proliferation assays using human tumour cell lines (obtained from the American Type Culture Collection, 10801 University Boulevard, Manessas, Va. 20110-2209, USA) were carried out. Standard 72-h MTT (thiazolyl blue; 3-[4,5-dimethylthiazol-2-yl]-2,5-diphenyltetrazolium bromide) assays were performed (Loveland et al, Biochem. Int., 1992, 27, 501; Haselsberger et al, Anti Cancer Drugs, 1996, 7, 331). In short: cells were seeded into 96-well plates according to doubling time and incubated overnight at 37° C. Test compounds were made up in DMSO and a ⅓ dilution series prepared in 100 μL cell media, added to cells (in triplicates) and incubated for 72 h at 37° C. MTT was made up as a stock of 5 mg/mL in cell media and filter-sterilised. Media was removed from cells followed by a wash with 200 μL PBS. MTT solution was then added at 20 μL per well and incubated in the dark at 37° C. for 4 h. MTT solution was removed and cells again washed with 200 μL PBS. MTT dye was solubilised with 200 μL per well of DMSO with agitation.
# HELA = test: 72-h MTT cellular proliferation assay, HELA; assay type: cell-based; conditions: Homo sapiens, read-out: Anti-proliferative activity on tumour cell lines (MTT assay) HELA IC50
# Method: as §1
# U2OS = test: 72-h MTT cellular proliferation assay, U2OS; assay type: cell-based; conditions: Homo sapiens, read-out: Anti-proliferative activity on tumour cell lines (MTT assay) U2OS IC50
# Method: as §1
# MCF-7 = test: 72-h MTT cellular proliferation assay, MCF-7; assay type: cell-based; conditions: Homo sapiens, MCF7; MCF-7, 72 h; read-out: Anti-proliferative activity on tumour cell lines (MTT assay) MCF-7 IC50
# Method: as §1
# human PLK1 = target: T1, human PLK1 (Homo sapiens, UniProt P53350); test: PLK1 protein kinase assay (CDC25C phosphorylation, [γ-32P]-ATP); assay type: biochemical; conditions: read-out: PLK1 kinase inhibition IC50
# T1 construct: A full-length human PLK1 (XM—047240) (amino acids 1-603) clone; His6 (N); made in house; host or cells: Sf9 insect cells (baculovirus) for PLK1; E. coli BL21(DE3) RIL for CDC25C
# T1 sequence (P53350 whole entry, the tested form may be a part): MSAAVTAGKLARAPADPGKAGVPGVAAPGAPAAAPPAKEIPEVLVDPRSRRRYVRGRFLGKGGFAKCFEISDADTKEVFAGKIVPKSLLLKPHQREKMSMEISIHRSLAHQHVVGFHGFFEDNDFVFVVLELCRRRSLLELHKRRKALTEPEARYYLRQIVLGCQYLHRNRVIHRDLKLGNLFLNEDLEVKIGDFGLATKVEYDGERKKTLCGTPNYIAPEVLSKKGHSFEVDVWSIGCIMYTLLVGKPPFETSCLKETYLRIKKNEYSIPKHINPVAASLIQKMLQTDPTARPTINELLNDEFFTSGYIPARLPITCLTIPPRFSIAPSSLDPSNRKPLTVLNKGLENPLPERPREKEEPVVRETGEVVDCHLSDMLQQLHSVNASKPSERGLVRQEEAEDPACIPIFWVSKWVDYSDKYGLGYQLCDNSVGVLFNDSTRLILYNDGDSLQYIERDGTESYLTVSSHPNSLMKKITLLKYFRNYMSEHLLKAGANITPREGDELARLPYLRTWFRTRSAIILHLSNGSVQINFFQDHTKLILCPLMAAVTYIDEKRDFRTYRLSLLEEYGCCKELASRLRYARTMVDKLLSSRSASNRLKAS
# Text: A full-length human CDC25C clone was isolated by PCR from HeLa mRNA and was inserted on a BamHI-HindIII fragment into pRsetA. The amino terminal fragment of CDC25C (encoding residues 1-300) was excised from this vector and inserted into pET28a (between the NcoI and BamHI sites). Expression was under the control of the T7 promoter, and the encoded protein contained a His6 tag at the carboxyl terminus. The vector was transformed into E. coli strain BRL(DE3) pLysS for expression experiments. CDC25C was expressed in BL21(DE3) RIL bacteria cells, grown in LB media at 37° C. until OD600nm of 0.6 was reached. The expression was induced with 1 mM IPTG and the bacterial culture was grown further for 3 h. The bacteria were harvested by centrifugation and the cell pellet was re-suspended in 50 mM Tris pH 7.5 and 10% sucrose, flash frozen, and stored at −70° C. until used. CDC25C protein was purified from E. coli inclusion bodies. The inclusion bodies were isolated in a buffer (50 mM Tris pH 8.0, 2 mM EDTA, 100 mM NaCl, 0.5% triton X-100). After denaturation in the presence of 6 M urea, the protein was refolded via slow dialysis of the urea. The protein was stored in 25 mM Tris pH 8.0, 100 mM NaCl, 1 mM DTT, 1 mM EDTA and 10% glycerol at −70° C. until used.
# A full-length human PLK1 (XM—047240) (amino acids 1-603) clone was amplified from a foetal lung cDNA library using primers incorporating restriction enzyme sites. […] The 3′ primer ([…]) incorporated a stop codon prior to the EcoR1 site. The PCR product was cloned into the Nhe1/EcoR1 sites of a baculovirus expression vector, pSSP 1. […] Cells were only used for expression in logarithmic growth phase. […] The flasks were incubated at 27° C., with shaking at 100 r.p.m. for 48 h. On harvest, cell density and viability was determined, the cultures spun down at 2500 r.p.m. for 5 min and washed with ice-cold phosphate-buffered saline. The wash was re-spun at the same speed and the pellet was snap frozen. PLK1 protein was purified on a metal affinity column.
# PLK1 protein kinase assays were carried out using a 96-well plate format by incubating CDC25C (2 μg/well) with PLK1 (1 μg/well) in 20 mM Tris/HCl buffer pH 7.5, supplemented with 25 mM β-glycerophosphate, 5 mM EGTA, 1 mM DTT and 1 mM NaVO3. Serial dilutions of test compound in assay buffer were added. […] The reaction mixture was incubated at 30° C. for 1 h, then stopped with 75 mM aq orthophosphoric acid, transferred onto a 96-well P81 filter plate (Whatman), dried, and the extent of CDC25C phosphorylation was assessed by scintillation counting using a Packard TopCount plate reader. The raw assay data was analysed by non-linear regression analysis parameters and IC50 values were determined using the equation: y=A+((B−A)/(1+((C/x)ˆD))), where y is % inhibition, A is minimum inhibition, B is maximum inhibition, C is EC50, and D is the slope factor.
Structure (SMILES),IC50 (A549),IC50 (HELA),IC50 (U2OS),IC50 (MCF-7),IC50 (human PLK1; 100 μM ATP),melting point,IC50 (human PLK1; kinase assay at 10 μM ATP)
"NC(=O)c1sc2c([N+](=O)[O-])cc(C(F)(F)F)cc2[n+]1[O-] [Compound 1a, 7-Nitro-3-oxy-5-trifluoromethyl-benzothiazole-2-carboxylic acid amide]",24 ± 3 µM,16 ± 8 µM,47 ± 7 µM,12.6 ± 6.3 µM,,,
"O=C(c1sc2c([N+](=O)[O-])cc(C(F)(F)F)cc2[n+]1[O-])N1CCCC1 [Compound 1b, (7-Nitro-3-oxy-5-trifluoromethyl-benzothiazol-2-yl)-pyrrolidin-1-yl-methanone]",5.2 µM,12 µM,16 µM,,56 ± 19 µM,,
"NNC(=O)c1sc2c([N+](=O)[O-])cc(C(F)(F)F)cc2[n+]1[O-] [Compound 1c, 7-Nitro-3-oxy-5-trifluoromethyl-benzothiazole-2-carboxylic acid hydrazide]",21 ± 3 µM,16 ± 10 µM,35 ± 3 µM,19 ± 16 µM,> 100 µM,229 to 230 °C,
"N#Cc1cc([N+](=O)[O-])c2sc(C(N)=O)[n+]([O-])c2c1 [Compound 1d, 5-Cyano-7-nitro-3-oxy-benzothiazole-2-carboxylic acid amide]",4.2 ± 1.5 µM,6.6 ± 0.8 µM,6.7 ± 1.2 µM,2 ± 2 µM,10 ± 7 µM,,
"O=C(NO)c1sc2c([N+](=O)[O-])cc(C(F)(F)F)cc2[n+]1[O-] [Compound 1e, 7-Nitro-3-oxy-5-trifluoromethyl-benzothiazole-2-carboxylic acid hydroxyamide]",13.3 ± 0.6 µM,21 ± 4 µM,29.4 ± 1.2 µM,9 ± 1 µM,50 to 100 µM,230 to 231 °C,
"NC(=O)c1sc2c([N+](=O)[O-])cc(F)cc2[n+]1[O-] [Compound 1f, 5-Fluoro-7-nitro-3-oxy-benzothiazole-2-carboxylic acid amide]",3.9 ± 0.2 µM,10.2 ± 2.4 µM,11.5 ± 2 µM,1.6 ± 0.2 µM,,,50 to 100 µM

# Further lines, results first:
IC50 (A549),IC50 (HELA),IC50 (U2OS),IC50 (MCF-7),IC50 (human PLK1; 100 μM ATP),melting point,IC50 (human PLK1; kinase assay at 10 μM ATP),Structure (SMILES)
7.7 ± 2.9 µM,14 ± 5 µM,7.2 ± 3.6 µM,6.1 ± 1.1 µM,67 ± 7 µM,224 to 225 °C,,"O=C(NO)c1sc2c([N+](=O)[O-])cc(F)cc2[n+]1[O-] [Compound 1g, 5-Fluoro-7-nitro-3-oxy-benzothiazole-2-carboxylic acid hydroxyamide]"
10 ± 0.08 µM,10.2 ± 3.3 µM,9.5 ± 1.7 µM,2.1 ± 1.5 µM,21 µM,,,"N#Cc1sc2c([N+](=O)[O-])cc(C(F)(F)F)cc2[n+]1[O-] [Compound 1h, 7-Nitro-3-oxy-5-trifluoromethyl-benzothiazole-2-carbonitrile]"
48 ± 5 µM,56 ± 2 µM,88 ± 10 µM,35 ± 2 µM,39 µM,,,"O=[N+]([O-])c1cc(C(F)(F)F)cc2c1sc(O)[n+]2[O-] [Compound 1i, 7-Nitro-3-oxy-5-trifluoromethyl-benzothiazol-2-ol]"
4 ± 1.8 µM,6 ± 0.8 µM,8.2 ± 0.3 µM,2.5 ± 1 µM,,255 to 256 °C,,"NC(=O)c1sc2c([N+](=O)[O-])cc(SC(F)(F)F)cc2[n+]1[O-] [Compound 1j, 7-Nitro-3-oxy-5-trifluoromethylsulfanyl-benzothiazole-2-carboxylic acid amide]"
